Test results as given in publication PMC5766581, “NF-κB inducing kinase is a therapeutic target for systemic lupus erythematosus” (Nature Communications, 2018).

How the values were obtained:
Assay in all cases: SelectScreen kinase panel
Format in all cases: biochemical
AKT2 = target: T1, AKT2 (Homo sapiens, UniProt P31751)
T1 construct: purchased Invitrogen / ThermoFisher SelectScreen
Method: (§1) The ability of NIK to catalyze the hydrolysis of adenosine-5′-triphosphate (ATP) was monitored using the Transcreener ADP (adenosine-5′-diphosphate) assay (Bell Brook Labs, Fitchburg, WI). Purified human NIK kinase domain (a.a. 340–694) (0.5 nM) or mouse NIK kinase domain (a.a. 329–675) (1 nM) derived from a baculovirus-infected insect cell expression system was incubated with test compounds for 0.5–2 h in 50 mM HEPES buffer (pH 7.2) containing 10 mM MgCl2, 2 mM dithiothreitol, 10 μM ATP, 0.01% Triton X-100, 0.1% gamma-globulins from bovine blood, 1% dimethylsulfoxide (DMSO), 7 μg/mL ADP antibody and 5 nM ADP-MR121 633 tracer. Reactions were quenched by the addition of 20 mM EDTA and 0.01% Brij 35. The tracer bound to the antibody was displaced by the ADP generated during the NIK reaction, which caused a decrease in fluorescence polarization that was measured by laser excitation at 633 nm with a Fluorescence Correlation Spectroscopy Plus reader (Evotec AG). Equilibrium dissociation constant (Ki) values for NIK inhibitors are calculated from plots of activity vs. inhibitor concentration using Morrison’s quadratic equation that accounts for the potential of tight binding, and by also applying the conversion factor that accounted for competitive inhibition and the concentration of substrate used in the assay relative to its Michaelis constant (Km). The Ki values with hPKD1 (PKCμ) were determined using the same assay conditions as for NIK. Ki measurements for hKHS1 and hLRRK2, as well as broad kinase selectivity profiling for SMI1, were carried out by Invitrogen using their SelectScreen kinase assay panel (ThermoFisher Scientific, Madison, WI). The vendor offered two types of kinase activity assays, a peptide phosphorylation assay (Z′-LYTE) and an ADP quantitation assay (Adapta), as well as one type of kinase ATP site competitive binding assay (LanthaScreen). See vendor web site for technology and protocol details for each specific kinase assay.
(§2) The average % Inhibition of each kinase is reported (Supplementary Table 1).

ARK5 = target: T2, ARK5 (Homo sapiens, UniProt O60285)
T2 construct: purchased Invitrogen / ThermoFisher SelectScreen
Method: as §1, §2

Brk = target: T3, Brk (Homo sapiens, UniProt Q13882)
T3 construct: purchased Invitrogen / ThermoFisher SelectScreen
Method: as §1, §2

CDK9/cyclinT1 = target: T4, CDK9/cyclinT1 (Homo sapiens, UniProt P50750)
T4 construct: purchased Invitrogen / ThermoFisher SelectScreen
Method: as §1, §2

CaMKI = target: T5, CaMKI (Homo sapiens, UniProt Q14012)
T5 construct: purchased Invitrogen / ThermoFisher SelectScreen
Method: as §1, §2

CaMKII_beta = target: T6, CaMKII_beta (Homo sapiens, UniProt Q13554)
T6 construct: purchased Invitrogen / ThermoFisher SelectScreen
Method: as §1, §2

EphB3 = target: T7, EphB3 (Homo sapiens, UniProt P54753)
T7 construct: purchased Invitrogen / ThermoFisher SelectScreen
Method: as §1, §2

IKK_epsilon = target: T8, IKK_epsilon (Homo sapiens, UniProt Q14164)
T8 construct: purchased Invitrogen / ThermoFisher SelectScreen
Method: as §1, §2

IRAK4 = target: T9, IRAK4 (Homo sapiens, UniProt Q9NWZ3)
T9 construct: purchased Invitrogen / ThermoFisher SelectScreen
Method: as §1, §2

IRR = target: T10, IRR (Homo sapiens, UniProt P14616)
T10 construct: purchased Invitrogen / ThermoFisher SelectScreen
Method: as §1, §2

LRRK2 = target: T11, LRRK2 (Homo sapiens, UniProt Q5S007); conditions: NIK SMI1 1 µM; ATP Km app
T11 construct: purchased Invitrogen / ThermoFisher SelectScreen
T11 sequence (Q5S007 whole entry): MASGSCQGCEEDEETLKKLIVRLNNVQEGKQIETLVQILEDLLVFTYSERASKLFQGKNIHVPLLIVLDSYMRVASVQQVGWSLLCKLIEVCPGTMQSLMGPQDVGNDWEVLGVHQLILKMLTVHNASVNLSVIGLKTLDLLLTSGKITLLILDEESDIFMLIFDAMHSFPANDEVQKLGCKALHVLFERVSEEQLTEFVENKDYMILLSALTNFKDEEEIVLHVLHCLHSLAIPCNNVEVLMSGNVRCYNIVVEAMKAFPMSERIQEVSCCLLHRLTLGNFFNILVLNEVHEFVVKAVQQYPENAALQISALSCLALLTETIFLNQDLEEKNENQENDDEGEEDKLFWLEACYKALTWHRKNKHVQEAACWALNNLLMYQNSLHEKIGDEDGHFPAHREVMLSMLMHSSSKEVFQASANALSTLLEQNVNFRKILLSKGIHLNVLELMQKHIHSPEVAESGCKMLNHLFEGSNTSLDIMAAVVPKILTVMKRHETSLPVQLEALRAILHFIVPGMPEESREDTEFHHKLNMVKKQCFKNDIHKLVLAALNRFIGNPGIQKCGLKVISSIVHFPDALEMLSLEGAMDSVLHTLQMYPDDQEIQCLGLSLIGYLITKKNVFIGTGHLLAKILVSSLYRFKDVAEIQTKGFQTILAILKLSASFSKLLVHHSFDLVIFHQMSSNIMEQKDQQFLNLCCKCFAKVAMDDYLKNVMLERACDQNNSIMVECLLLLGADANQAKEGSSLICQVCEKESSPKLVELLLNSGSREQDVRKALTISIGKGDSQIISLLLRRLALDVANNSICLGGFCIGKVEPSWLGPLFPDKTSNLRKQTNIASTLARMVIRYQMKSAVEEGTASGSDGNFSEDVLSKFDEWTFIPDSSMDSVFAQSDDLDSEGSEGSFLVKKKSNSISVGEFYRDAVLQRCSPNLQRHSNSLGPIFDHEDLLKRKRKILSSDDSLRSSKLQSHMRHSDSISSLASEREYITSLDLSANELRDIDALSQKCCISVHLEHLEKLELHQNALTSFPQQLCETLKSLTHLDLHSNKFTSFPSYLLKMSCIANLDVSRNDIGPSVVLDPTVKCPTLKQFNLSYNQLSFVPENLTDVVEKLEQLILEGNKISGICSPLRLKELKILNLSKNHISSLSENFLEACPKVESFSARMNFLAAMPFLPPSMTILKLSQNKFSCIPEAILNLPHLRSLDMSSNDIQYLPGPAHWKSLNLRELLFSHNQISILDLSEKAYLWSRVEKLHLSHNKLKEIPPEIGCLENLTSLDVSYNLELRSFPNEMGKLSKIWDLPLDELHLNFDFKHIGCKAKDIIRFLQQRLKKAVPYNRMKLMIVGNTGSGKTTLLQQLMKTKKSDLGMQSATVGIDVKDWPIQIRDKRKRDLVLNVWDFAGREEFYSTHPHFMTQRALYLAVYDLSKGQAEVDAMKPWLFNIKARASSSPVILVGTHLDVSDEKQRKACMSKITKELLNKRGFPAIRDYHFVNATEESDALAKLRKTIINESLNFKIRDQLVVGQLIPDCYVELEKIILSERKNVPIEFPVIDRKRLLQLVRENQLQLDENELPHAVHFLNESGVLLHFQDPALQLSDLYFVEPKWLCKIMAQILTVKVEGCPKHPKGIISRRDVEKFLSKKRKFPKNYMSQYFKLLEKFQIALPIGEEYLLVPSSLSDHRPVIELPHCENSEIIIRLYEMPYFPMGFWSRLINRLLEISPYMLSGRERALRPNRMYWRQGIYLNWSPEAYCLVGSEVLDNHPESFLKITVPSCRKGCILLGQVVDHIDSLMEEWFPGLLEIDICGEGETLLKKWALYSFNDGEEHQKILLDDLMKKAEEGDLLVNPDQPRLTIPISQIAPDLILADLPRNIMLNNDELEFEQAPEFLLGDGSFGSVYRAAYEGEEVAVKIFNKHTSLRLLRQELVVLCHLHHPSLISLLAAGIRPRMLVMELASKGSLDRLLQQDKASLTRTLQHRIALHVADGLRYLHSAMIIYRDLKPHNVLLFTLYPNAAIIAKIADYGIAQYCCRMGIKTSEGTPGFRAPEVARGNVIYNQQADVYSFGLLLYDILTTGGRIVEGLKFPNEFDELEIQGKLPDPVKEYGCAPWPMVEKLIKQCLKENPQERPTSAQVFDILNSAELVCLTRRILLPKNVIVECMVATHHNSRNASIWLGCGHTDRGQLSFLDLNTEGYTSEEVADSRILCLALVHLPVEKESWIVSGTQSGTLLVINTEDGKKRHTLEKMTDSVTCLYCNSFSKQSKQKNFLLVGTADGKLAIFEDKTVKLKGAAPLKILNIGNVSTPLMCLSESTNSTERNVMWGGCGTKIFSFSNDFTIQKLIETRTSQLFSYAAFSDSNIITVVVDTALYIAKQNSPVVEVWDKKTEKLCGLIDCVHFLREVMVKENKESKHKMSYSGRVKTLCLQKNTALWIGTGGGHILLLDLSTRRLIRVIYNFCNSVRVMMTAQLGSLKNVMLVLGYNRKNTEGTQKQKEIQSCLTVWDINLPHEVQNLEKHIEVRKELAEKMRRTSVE
Method: as §1, §2

MSK1 = target: T12, MSK1 (Homo sapiens, UniProt O75582)
T12 construct: purchased Invitrogen / ThermoFisher SelectScreen
Method: as §1, §2

Mer = target: T13, Mer (Homo sapiens, UniProt Q12866)
T13 construct: purchased Invitrogen / ThermoFisher SelectScreen
T13 sequence (Q12866 21-999): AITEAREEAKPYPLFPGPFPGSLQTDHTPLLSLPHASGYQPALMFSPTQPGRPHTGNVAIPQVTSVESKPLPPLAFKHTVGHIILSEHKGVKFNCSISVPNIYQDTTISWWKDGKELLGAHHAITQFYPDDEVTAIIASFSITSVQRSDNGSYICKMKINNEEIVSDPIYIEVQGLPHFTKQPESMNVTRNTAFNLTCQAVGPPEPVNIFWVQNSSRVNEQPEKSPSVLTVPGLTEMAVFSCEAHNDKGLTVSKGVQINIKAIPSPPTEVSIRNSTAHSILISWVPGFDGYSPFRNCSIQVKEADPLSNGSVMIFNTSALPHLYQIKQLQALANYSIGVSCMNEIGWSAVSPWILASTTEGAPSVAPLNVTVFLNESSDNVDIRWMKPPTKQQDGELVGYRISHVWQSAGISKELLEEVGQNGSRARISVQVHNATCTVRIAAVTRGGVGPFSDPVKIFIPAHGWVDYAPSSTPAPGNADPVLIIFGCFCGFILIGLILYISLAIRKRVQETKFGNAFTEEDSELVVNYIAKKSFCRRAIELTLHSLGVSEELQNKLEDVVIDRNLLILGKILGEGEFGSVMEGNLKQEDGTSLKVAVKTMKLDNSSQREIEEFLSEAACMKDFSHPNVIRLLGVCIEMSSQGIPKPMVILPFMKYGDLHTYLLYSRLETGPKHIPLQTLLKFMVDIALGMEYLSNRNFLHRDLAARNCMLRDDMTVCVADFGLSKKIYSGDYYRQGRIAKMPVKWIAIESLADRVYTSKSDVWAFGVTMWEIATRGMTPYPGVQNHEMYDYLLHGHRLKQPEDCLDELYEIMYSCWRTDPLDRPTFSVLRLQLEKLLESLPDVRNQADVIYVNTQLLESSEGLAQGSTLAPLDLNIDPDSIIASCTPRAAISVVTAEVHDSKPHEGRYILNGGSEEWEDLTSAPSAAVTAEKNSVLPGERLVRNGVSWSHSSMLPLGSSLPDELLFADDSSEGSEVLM
Method: as §1, §2

NEK9 = target: T14, NEK9 (Homo sapiens, UniProt Q8TD19)
T14 construct: purchased Invitrogen / ThermoFisher SelectScreen
Method: as §1, §2

PAK6 = target: T15, PAK6 (Homo sapiens, UniProt Q9NQU5)
T15 construct: purchased Invitrogen / ThermoFisher SelectScreen
T15 sequence (Q9NQU5 whole entry): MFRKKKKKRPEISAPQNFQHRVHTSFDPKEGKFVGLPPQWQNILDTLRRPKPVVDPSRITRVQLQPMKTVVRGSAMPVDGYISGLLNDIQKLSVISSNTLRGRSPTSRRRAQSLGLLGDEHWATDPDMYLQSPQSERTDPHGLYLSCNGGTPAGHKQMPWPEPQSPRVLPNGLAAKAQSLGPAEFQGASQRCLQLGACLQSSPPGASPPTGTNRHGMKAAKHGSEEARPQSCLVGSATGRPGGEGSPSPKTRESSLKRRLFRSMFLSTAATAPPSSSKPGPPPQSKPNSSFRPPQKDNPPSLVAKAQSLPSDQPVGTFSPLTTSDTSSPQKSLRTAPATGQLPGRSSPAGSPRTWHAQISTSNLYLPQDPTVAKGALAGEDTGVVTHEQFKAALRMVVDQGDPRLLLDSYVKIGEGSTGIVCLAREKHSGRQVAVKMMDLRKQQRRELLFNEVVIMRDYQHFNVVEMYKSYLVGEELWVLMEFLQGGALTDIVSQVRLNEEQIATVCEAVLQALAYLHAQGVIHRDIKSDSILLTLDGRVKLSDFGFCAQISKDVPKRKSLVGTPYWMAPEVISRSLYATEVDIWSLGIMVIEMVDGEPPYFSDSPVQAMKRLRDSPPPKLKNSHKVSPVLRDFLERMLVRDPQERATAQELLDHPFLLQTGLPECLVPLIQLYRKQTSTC
Method: as §1, §2

PASK = target: T16, PASK (Homo sapiens, UniProt Q96RG2)
T16 construct: purchased Invitrogen / ThermoFisher SelectScreen
Method: as §1, §2

PI3K- A = target: T17, PI3K- A (Homo sapiens, UniProt P42336)
T17 construct: purchased Invitrogen / ThermoFisher SelectScreen
Method: as §1, §2

PI3K- G = target: T18, PI3K- G (Homo sapiens, UniProt P48736)
T18 construct: purchased Invitrogen / ThermoFisher SelectScreen
Method: as §1, §2

PKA = target: T19, PKA (Homo sapiens, UniProt P17612)
T19 construct: purchased Invitrogen / ThermoFisher SelectScreen
Method: as §1, §2

PKC_beta1 = target: T20, PKC_beta1 (Homo sapiens, UniProt P05771)
T20 construct: purchased Invitrogen / ThermoFisher SelectScreen
Method: as §1, §2

PLK1 = target: T21, PLK1 (Homo sapiens, UniProt P53350)
T21 construct: purchased Invitrogen / ThermoFisher SelectScreen
Method: as §1, §2

PLK3 = target: T22, PLK3 (Homo sapiens, UniProt Q9H4B4)
T22 construct: purchased Invitrogen / ThermoFisher SelectScreen
Method: as §1, §2

Ret = target: T23, Ret (Homo sapiens, UniProt P07949)
T23 construct: purchased Invitrogen / ThermoFisher SelectScreen
Method: as §1, §2

Rse = target: T24, Rse (Homo sapiens, UniProt Q06418)
T24 construct: purchased Invitrogen / ThermoFisher SelectScreen
Method: as §1, §2

SRPK1 = target: T25, SRPK1 (Homo sapiens, UniProt Q96SB4)
T25 construct: purchased Invitrogen / ThermoFisher SelectScreen
T25 sequence (Q96SB4 whole entry): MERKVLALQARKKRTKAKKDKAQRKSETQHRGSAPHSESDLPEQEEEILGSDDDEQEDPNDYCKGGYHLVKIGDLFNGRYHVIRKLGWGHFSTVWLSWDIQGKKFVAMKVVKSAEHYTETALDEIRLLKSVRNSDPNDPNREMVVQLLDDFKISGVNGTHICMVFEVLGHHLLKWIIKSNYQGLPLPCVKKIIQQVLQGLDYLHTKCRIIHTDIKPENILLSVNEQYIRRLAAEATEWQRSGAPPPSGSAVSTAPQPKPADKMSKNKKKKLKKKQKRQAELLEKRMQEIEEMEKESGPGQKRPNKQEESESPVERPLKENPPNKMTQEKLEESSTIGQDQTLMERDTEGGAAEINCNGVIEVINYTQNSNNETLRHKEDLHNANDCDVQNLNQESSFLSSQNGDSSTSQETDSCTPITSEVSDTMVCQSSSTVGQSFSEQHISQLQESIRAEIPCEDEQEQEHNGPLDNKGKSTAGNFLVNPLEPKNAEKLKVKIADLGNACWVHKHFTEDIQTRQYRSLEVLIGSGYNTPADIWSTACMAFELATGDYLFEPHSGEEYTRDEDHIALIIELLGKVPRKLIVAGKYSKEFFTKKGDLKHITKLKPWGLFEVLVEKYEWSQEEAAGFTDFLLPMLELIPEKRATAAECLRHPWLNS
Method: as §1, §2

Syk = target: T26, Syk (Homo sapiens, UniProt P43405)
T26 construct: purchased Invitrogen / ThermoFisher SelectScreen
Method: as §1, §2

TSSK1 = target: T27, TSSK1 (Homo sapiens, UniProt Q9BXA7)
T27 construct: purchased Invitrogen / ThermoFisher SelectScreen
Method: as §1, §2

TXK = target: T28, TXK (Homo sapiens, UniProt P42681)
T28 construct: purchased Invitrogen / ThermoFisher SelectScreen
Method: as §1, §2

Tie2 = target: T29, Tie2 (Homo sapiens, UniProt Q02763)
T29 construct: purchased Invitrogen / ThermoFisher SelectScreen
Method: as §1, §2

TrkB = target: T30, TrkB (Homo sapiens, UniProt Q16620)
T30 construct: purchased Invitrogen / ThermoFisher SelectScreen
Method: as §1, §2

YSK1 = target: T31, YSK1 (Homo sapiens, UniProt O00506)
T31 construct: purchased Invitrogen / ThermoFisher SelectScreen
Method: as §1, §2

p70S6K = target: T32, p70S6K (Homo sapiens, UniProt P23443)
T32 construct: purchased Invitrogen / ThermoFisher SelectScreen
Method: as §1, §2

COc1cc(C(N)=O)nc(-c2cccc(C#C[C@]3(O)CCN(C)C3=O)c2)c1 [NIK SMI1]
inhibition at 1 µM (AKT2): 13%
inhibition at 1 µM (ARK5): 1.5%
inhibition at 1 µM (Brk): 7%
inhibition at 1 µM (CDK9/cyclinT1): 15.3%
inhibition at 1 µM (CaMKI): 18.3%
inhibition at 1 µM (CaMKII_beta): 30.5%
inhibition at 1 µM (EphB3): 5.5%
inhibition at 1 µM (IKK_epsilon): 19%
inhibition at 1 µM (IRAK4): -1.5%
inhibition at 1 µM (IRR): 5%
% Inhibition (LRRK2): 82.1%
inhibition at 1 µM (LRRK2): > 75%
inhibition at 1 µM (MSK1): 7.5%
inhibition at 1 µM (Mer): 3.5%
inhibition at 1 µM (NEK9): 1.5%
inhibition at 1 µM (PAK6): 31.5%
inhibition at 1 µM (PASK): 16%
inhibition at 1 µM (PI3K- A): -7.5%
inhibition at 1 µM (PI3K- G): -2.9%
inhibition at 1 µM (PKA): -3%
inhibition at 1 µM (PKC_beta1): 1.5%
inhibition at 1 µM (PLK1): 1.5%
inhibition at 1 µM (PLK3): 9%
inhibition at 1 µM (Ret): 2%
inhibition at 1 µM (Rse): 12%
inhibition at 1 µM (SRPK1): 8.5%
inhibition at 1 µM (Syk): -0.5%
inhibition at 1 µM (TSSK1): 61%
inhibition at 1 µM (TXK): 4.5%
inhibition at 1 µM (Tie2): 6%
inhibition at 1 µM (TrkB): -3.5%
inhibition at 1 µM (YSK1): 39%
inhibition at 1 µM (p70S6K): 9.5%
